System: 777334-354-R2-J4-PDC tumor spheroids with HUVEC/MSC, viability
Test: Anticancer human tumor 777334-354-R2-J4-PDC patient-derived pancreatic adenocarcinoma cell line growth inhibition [GQUAD]
Settings: for IC50: curve of first compound; for viability, T/C: stronger effect = lower value
In short: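 Multi-cell-type spheroids of tumor cells with HUVEC and mesenchymal stem cells, treated with drug combinations. Concentrations descend in half-log steps from near clinical Cmax, or from 10 microM where Cmax is unknown; viability read-out.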

[1] = second compound 0.0316 µM, first compound 0.000999 µM
[2] = second compound 0.0316 µM, first compound 0.00316 µM
[3] = second compound 0.0316 µM, first compound 0.00999 µM
[4] = second compound 0.0316 µM, first compound 0.0316 µM
[5] = second compound 0.0316 µM, first compound 0.0999 µM
[6] = second compound 0.0316 µM, first compound 0.316 µM
[7] = second compound 0.1 µM, first compound 0.000999 µM
[8] = second compound 0.1 µM, first compound 0.00316 µM
[9] = second compound 0.1 µM, first compound 0.00999 µM
[10] = second compound 0.1 µM, first compound 0.0316 µM
[11] = second compound 0.1 µM, first compound 0.0999 µM
[12] = second compound 0.1 µM, first compound 0.316 µM
[13] = second compound 0.316 µM, first compound 0.000999 µM
[14] = second compound 0.316 µM, first compound 0.00316 µM
[15] = second compound 0.316 µM, first compound 0.00999 µM
[16] = second compound 0.316 µM, first compound 0.0316 µM
[17] = second compound 0.316 µM, first compound 0.0999 µM
[18] = second compound 0.316 µM, first compound 0.316 µM
[19] = second compound 1 µM, first compound 0.000999 µM
[20] = second compound 1 µM, first compound 0.00316 µM
[21] = second compound 1 µM, first compound 0.00999 µM
[22] = second compound 1 µM, first compound 0.0316 µM
[23] = second compound 1 µM, first compound 0.0999 µM
[24] = second compound 1 µM, first compound 0.316 µM
[25] = second compound 3.16 µM, first compound 0.000999 µM
[26] = second compound 3.16 µM, first compound 0.00316 µM
[27] = second compound 3.16 µM, first compound 0.00999 µM
[28] = second compound 3.16 µM, first compound 0.0316 µM
[29] = second compound 3.16 µM, first compound 0.0999 µM
[30] = second compound 3.16 µM, first compound 0.316 µM
[31] = second compound 10 µM, first compound 0.000999 µM
[32] = second compound 10 µM, first compound 0.00316 µM
[33] = second compound 10 µM, first compound 0.00999 µM
[34] = second compound 10 µM, first compound 0.0316 µM
[35] = second compound 10 µM, first compound 0.0999 µM
[36] = second compound 10 µM, first compound 0.316 µM
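Also: spheroids exposed to compounds for 7 days before readout.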

CCc1c2c(nc3ccc(O)cc13)-c1cc3c(c(=O)n1C2)COC(=O)[C@]3(O)CC + Cc1cnc(CNC(=O)c2c(=O)c3ccc(N4CCCN(C)CC4)nc3n3c2sc2ccccc23)cn1
IC50 (second compound 0.0316 µM): 0.00438 µM | IC50 (second compound 0.1 µM): 0.00444 µM | IC50 (second compound 0.316 µM): 0.00386 µM | IC50 (second compound 1 µM): 0.00462 µM | IC50 (second compound 3.16 µM): 0.0012 µM | IC50 (second compound 10 µM): 0.00184 µM | viability, T/C [1]: 84.8% | viability, T/C [2]: 49.6% | viability, T/C [3]: 39.5% | viability, T/C [4]: 25.7% | viability, T/C [5]: 13.8% | viability, T/C [6]: 7.76% | viability, T/C [7]: 84.4% | viability, T/C [8]: 54.1% | viability, T/C [9]: 38.1% | viability, T/C [10]: 23.2% | viability, T/C [11]: 17.4% | viability, T/C [12]: 10.6% | viability, T/C [13]: 63.6% | viability, T/C [14]: 54.1% | viability, T/C [15]: 37.1% | viability, T/C [16]: 29% | viability, T/C [17]: 19.1% | viability, T/C [18]: 10.3% | viability, T/C [19]: 56% | viability, T/C [20]: 56.8% | viability, T/C [21]: 40.6% | viability, T/C [22]: 32.1% | viability, T/C [23]: 16.7% | viability, T/C [24]: 7.38% | viability, T/C [25]: 49.5% | viability, T/C [26]: 49.4% | viability, T/C [27]: 40.1% | viability, T/C [28]: 28.4% | viability, T/C [29]: 13.8% | viability, T/C [30]: 4.92% | viability, T/C [31]: 57.5% | viability, T/C [32]: 40.6% | viability, T/C [33]: 33.6% | viability, T/C [34]: 27.9% | viability, T/C [35]: 0.34% | viability, T/C [36]: 0.24%

Cc1[nH]c2ccccc2c1CCNCc1ccc(/C=C/C(=O)NO)cc1 + Cc1[nH]c2ccc(F)cc2c1-c1nc2c3cccnc3c3ncccc3c2[nH]1
IC50 (second compound 0.0316 µM): 0.189 µM | IC50 (second compound 0.1 µM): 0.215 µM | IC50 (second compound 0.316 µM): 0.207 µM | IC50 (second compound 1 µM): 0.176 µM | IC50 (second compound 3.16 µM): < 0.000999 µM | IC50 (second compound 10 µM): < 0.000999 µM | viability, T/C [1]: 114% | viability, T/C [2]: 91.3% | viability, T/C [3]: 103% | viability, T/C [4]: 78.2% | viability, T/C [5]: 74.5% | viability, T/C [6]: 33.8% | viability, T/C [7]: 103% | viability, T/C [8]: 94% | viability, T/C [9]: 102% | viability, T/C [10]: 90.6% | viability, T/C [11]: 73.1% | viability, T/C [12]: 38.5% | viability, T/C [13]: 90.2% | viability, T/C [14]: 92.2% | viability, T/C [15]: 109% | viability, T/C [16]: 92.7% | viability, T/C [17]: 79% | viability, T/C [18]: 33.1% | viability, T/C [19]: 97.9% | viability, T/C [20]: 80.3% | viability, T/C [21]: 78.4% | viability, T/C [22]: 91.2% | viability, T/C [23]: 70.4% | viability, T/C [24]: 29.2% | viability, T/C [25]: 46% | viability, T/C [26]: 37.7% | viability, T/C [27]: 41% | viability, T/C [28]: 49.3% | viability, T/C [29]: 52.5% | viability, T/C [30]: 38.7% | viability, T/C [31]: 46.3% | viability, T/C [32]: 24.8% | viability, T/C [33]: 38.9% | viability, T/C [34]: 35% | viability, T/C [35]: 41.6% | viability, T/C [36]: 32.1%

CC(C)(O)C1CCC(Nc2ccc3ncc(-c4cccc(C(F)(F)F)c4)n3n2)CC1 (stereo unspecified) + CN(C)c1ccc(Nc2c3ccc(NC(=O)CCN4CCCC4)cc3nc3cc(NC(=O)CCN4CCCC4)ccc23)cc1
IC50 (second compound 0.0316 µM): 0.849 µM | IC50 (second compound 0.1 µM): 0.921 µM | IC50 (second compound 0.316 µM): 1.34 µM | IC50 (second compound 1 µM): 1.34 µM | IC50 (second compound 3.16 µM): 1.06 µM | IC50 (second compound 10 µM): 0.669 µM | viability, T/C [4]: 99.9% | viability, T/C (second compound 0.0316 µM, first compound 0.1 µM): 90.2% | viability, T/C [6]: 90.2% | viability, T/C (second compound 0.0316 µM, first compound 1 µM): 43.4% | viability, T/C (second compound 0.0316 µM, first compound 3.16 µM): 32.3% | viability, T/C (second compound 0.0316 µM, first compound 10 µM): 35.5% | viability, T/C [10]: 98.2% | viability, T/C (second compound 0.1 µM, first compound 0.1 µM): 86.5% | viability, T/C [12]: 81.4% | viability, T/C (second compound 0.1 µM, first compound 1 µM): 47.4% | viability, T/C (second compound 0.1 µM, first compound 3.16 µM): 31.3% | viability, T/C (second compound 0.1 µM, first compound 10 µM): 31.5% | viability, T/C [16]: 89% | viability, T/C (second compound 0.316 µM, first compound 0.1 µM): 68.1% | viability, T/C [18]: 79.7% | viability, T/C (second compound 0.316 µM, first compound 1 µM): 55% | viability, T/C (second compound 0.316 µM, first compound 3.16 µM): 36.6% | viability, T/C (second compound 0.316 µM, first compound 10 µM): 33.9% | viability, T/C [22]: 78.9% | viability, T/C (second compound 1 µM, first compound 0.1 µM): 89.9% | viability, T/C [24]: 81.4% | viability, T/C (second compound 1 µM, first compound 1 µM): 56.3% | viability, T/C (second compound 1 µM, first compound 3.16 µM): 29.6% | viability, T/C (second compound 1 µM, first compound 10 µM): 33.3% | viability, T/C [28]: 76.8% | viability, T/C (second compound 3.16 µM, first compound 0.1 µM): 82.3% | viability, T/C [30]: 80.5% | viability, T/C (second compound 3.16 µM, first compound 1 µM): 51.2% | viability, T/C (second compound 3.16 µM, first compound 3.16 µM): 27.9% | viability, T/C (second compound 3.16 µM, first compound 10 µM): 27% | viability, T/C [34]: 83.9% | viability, T/C (second compound 10 µM, first compound 0.1 µM): 77.2% | viability, T/C [36]: 67.8% | viability, T/C (second compound 10 µM, first compound 1 µM): 41.6% | viability, T/C (second compound 10 µM, first compound 3.16 µM): 19.1% | viability, T/C (second compound 10 µM, first compound 10 µM): 19.4%
